Bounds are passed on as bounds.

The target of this test is T1, p56lck GST-SH2 (lck SH2 domain) (Homo sapiens, UniProt P06239).
T1 construct: GST (N)
Put plainly: Receptor-ligand equilibrium binding constants by surface plasmon resonance (biosensor), lck SH2 domain. The procedure: The general methods for the determination of Receptor-Ligand Kinetic and Equilibrium Binding Constants using Surface Plasmon Resonance as applied to the lck SH2 Domain have been described in: M. M. Morelock, R. H. Ingraham, R. Betageri.
General Biosensor Methods.
The mobile phase buffer, 10 mM HEPES, pH 7.4, 150 mM NaCl, and 0.05% P-20, was maintained at a flow rate of 5 μL/min in all experiments. All buffers and protein solutions were filtered through a 0.2 um filter and degassed immediately before use.
Strepavidin was diluted to 0.25 mg/ml in 20 mM NaOAc buffer, pH 4.5 and immobilized by free amine coupling to approximately 3000 RU for all 4 flow cells from a single sensor chip .
Surface Kd Determinations.
The surface was regenerated by 4μL of 20 mM HCl followed by 4 μL of 150 mM Tris base. The values used in the analysis were the equilibrium plateau values from which the sample refractive index has been subtracted. For the data analyzed for linear function the equilibrium plateau values without the sample refractive index subtracted were used. Free solution Kd determinations. In a 96 well microtiter plate 20 nM SH2 domain suspended in running buffer containing 0.2 mg/ml BSA and 1 mM DT'T was distributed in 100 μL per well. The highest concentration of compound tested was added to the last well and titrated with 2 fold dilutions for a final of 10 concentrations to be run. 25 μL of the mixture was injected over a strepavidin-biotin-ε-aminohexanoic acid-EGQpYEEIPIA surface and regenerated with 4 μL of 20 mM HCl. […], of 150 mM Tris base was injected after every 11 samples. Typically 8 assays were run in an overnight programmed run.

[1] abbreviates: Table 1, compounds of formula (II).
Setting [2] is: Table 2, compounds of formula (III).

T1 sequence (P06239 127-224 limits assumed): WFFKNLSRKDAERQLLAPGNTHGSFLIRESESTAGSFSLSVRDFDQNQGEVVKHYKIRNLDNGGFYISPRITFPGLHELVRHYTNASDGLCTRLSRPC

For `Cc1ccn(Cc2ccc(C(C)C)cc2)c(=O)c1NC(=O)[C@H](Cc1ccc(N(O)C(=O)C(=O)O)cc1)NC(=O)Cc1ccc(N(C)C)cc1` [Compound 96], binding under setting [1] was characterised by a dissociation constant (Kd) of 23 µM.
On to `COc1ccc(Cn2cc(/C=C/C(N)=O)c(C)c(NC(=O)C(Cc3ccc(C(C)(C)C(=O)O)cc3)NC(=O)Cc3ccc4ccccc4c3)c2=O)cc1` (racemic) [Compound 221, 3-[2'-(R,S)-(2""-Naphthylacetyl)amino-3'-[4"-(1'"-carboxy-1'"-methyl)ethyl]benzene]propanoylamino-5-acrylamido-1-(4-methoxybenzyl)-4-methyl-2-pyridone], for which binding under setting [1] was put at a Kd of 0.17 µM.
For `COc1ccc(Cn2ccc(C)c(NC(=O)[C@H](Cc3ccc(NC(=O)C(=O)O)cc3)NC(=O)Cc3ccc(Br)cc3)c2=O)cc1` [Compound 36], the dissociation constant Kd under setting [1] came out at 1.5 µM.
`COc1ccc(Cn2ccc(C)c(NC(=O)[C@H](Cc3ccc(NC(=O)C(=O)O)cc3)NC(=O)Nc3nc4ccccc4s3)c2=O)cc1` [Compound 7] registered a Kd under setting [1] greater than 11 µM.
On the same count and under the same terms, in the case of `COc1ccc(C(C)n2ccc(C)c(NC(=O)[C@H](Cc3ccc(CC(=O)O)cc3)NC(C)=O)c2=O)cc1` (some centres unmarked) [Compound 81] it was 23 µM; in that of `Cc1ccn(Cc2ccccc2)c(=O)c1NC(=O)C(Cc1ccc(C(C)(C)C(=O)O)cc1)NC(=O)Cc1cccc2ccccc12` (centres unmarked) [Compound 197], 9 µM.
`Cc1ccn(Cc2ccc(C(=O)C(F)(F)F)cc2)c(=O)c1NC(=O)C(Cc1ccc(C(C)(C)C(=O)O)cc1)NC(=O)C(C)(C)c1ccc2ccccc2c1` (centres unmarked) [Compound 225]: the Kd under setting [1] came out at 41 µM.
Take `COc1ccc(Cn2ccc(C)c(NC(=O)[C@H](Cc3ccc(NC(=O)C(=O)O)cc3)NC(=O)Cc3ccc(NC(C)C)cc3)c2=O)cc1` [Compound 47]: under setting [1], the dissociation constant Kd is 2.1 µM.
Same read-out and setting: the value for `COc1ccc(Cn2ccc(C)c(NC(=O)[C@H](Cc3ccc(NC(=O)C(=O)O)cc3)NC(=O)Nc3ccc(C(C)C)cc3)c2=O)cc1` [Compound 103] was 12 µM.
As to `COc1ccc(Cn2ncc(C)c(NC(=O)C(Cc3ccc(C(C)(C)C(=O)O)cc3)NC(=O)Cc3ccccc3[N+](=O)[O-])c2=O)cc1` (centres unmarked) [Compound 247], the dissociation constant (Kd) under setting [2] is 5.2 µM.
In the case of `COc1ccc(Cn2ccc(C)c(NC(=O)[C@H](Cc3ccc(C(CO)C(=O)O)cc3)NC(=O)Cc3cccc4ccccc34)c2=O)cc1` (stereo partly drawn) [Compound 136, 3-[2'-(S)-(1'"-Naphthylacetyl)amino-3'-[4"-(1'"-(R,S)-carboxy-2'"-hydroxy)ethyl]benzene]propanoylamino-1-(4-methoxybenzyl)-4-methyl-2-pyridone], the Kd under setting [1] was determined as 5.6 µM.
As to `COc1ccc(Cn2cc(Br)c(C)c(NC(=O)[C@H](Cc3ccc(C(C)(C)C(=O)O)cc3)NC(=O)Cc3ccc(C(F)(F)F)cc3)c2=O)cc1` [Compound 228], the dissociation constant (Kd) under setting [1] came to 0.08 µM.
With `COc1ccc(Cn2ccc(C)c(NC(=O)[C@H](Cc3ccc(C(C)(C)C(=O)O)cc3)NC(=O)Cc3ccc(N(Cc4ccccc4)Cc4ccccc4)cc3)c2=O)cc1` [Compound 131], the Kd under setting [1] is greater than 1.3 µM.
On the same count and under the same terms, in the case of `COc1ccc(Cn2ccc(C)c(NC(=O)[C@H](Cc3ccc(N(O)C(=O)C(=O)O)cc3)NC(=O)Cc3cccc4ccccc34)c2=O)cc1` [Compound 1, 3-[2'-(S)-(1'"-Naphthylacetyl)amino-3'-[4"-(N-oxalyl, N-hydroxy)amino]benzene]propanoylamino-1-(4-methoxybenzyl)-4-methyl-2-pyridone] it was 2.3 µM.
Still for that read-out and setting: the value for `COc1ccc(Cn2ccc(C)c(NC(=O)[C@H](Cc3ccc(CC(=O)O)cc3)NC(=O)COc3cccc4cnccc34)c2=O)cc1` [Compound 84] was 400 µM.
Turning to `Cc1ccn(Cc2ccc(Cl)cc2)c(=O)c1NC(=O)[C@H](Cc1ccc(CC(=O)O)cc1)NC(=O)Cc1cccc2ccccc12` [Compound 55], the dissociation constant (Kd) under setting [1] was 15 µM.
In turn, `COCCOCn1ccc(C)c(NC(=O)C(Cc2ccc(C(C)(C)C(=O)O)cc2)NC(=O)C(C)(C)c2ccc3ccccc3c2)c1=O` (centres unmarked) [Compound 190] gave a dissociation constant (Kd) under setting [1] of 43 µM.
Still for that read-out and setting: the value for `COc1ccc(Cn2cc(Br)c(C)c(NC(=O)[C@H](Cc3ccc(C(C)(C)C(=O)O)cc3)NC(=O)C(C)(F)c3ccc(C(F)(F)F)cc3)c2=O)cc1` (some centres unmarked) [Compound 234] was 1.6 µM.
Under setting [1], `COc1ccc(Cn2ccc(C)c(NC(=O)[C@H](Cc3ccc(CC(=O)O)cc3)NC(C)=O)c2=O)cc1` [Compound 89] yielded a Kd of 19 µM.
As for `COc1ccc(Cn2ccc(C)c(NC(=O)[C@H](Cc3ccc(CC(=O)O)cc3)NC(=O)COc3cc4ccccc4cn3)c2=O)cc1` [Compound 86], the dissociation constant Kd under setting [1] was 3.3 µM.
The compound `COc1ccc(Cn2ccc(C)c(NC(=O)[C@H](Cc3ccc(C(C)(C)C(=O)O)cc3)NC(=O)Cc3ccccc3C)c2=O)cc1` [Compound 113] registered a dissociation constant (Kd) under setting [1] of 0.87 µM.
Compound `CCC(=O)N[C@@H](Cc1ccc(CC(=O)O)cc1)C(=O)Nc1c(C)ccn(Cc2ccc(OC)cc2)c1=O` [Compound 74] came in with a dissociation constant Kd under setting [1] of 14 µM.
`COc1ccc(Cn2ccc(C)c(NC(=O)C(Cc3ccc(C(C)(C)C(=O)O)cc3)NC(=O)C(C)(C)c3ccc(N(C)C)cc3)c2=O)cc1` (centres unmarked) [Compound 230] gave a Kd under setting [1] of 0.51 µM.
Under setting [1], `COc1ccc(Cn2ccc(C)c(NC(=O)[C@H](Cc3ccc(NC(=O)C(=O)O)cc3)NC(=O)CNC(=O)c3ccccc3C(=O)O)c2=O)cc1` [Compound 31] yielded a Kd of 0.68 µM.
As for `COc1ccc(Cn2ccc(C)c(NC(=O)[C@H](Cc3ccc(NC(=O)C(=O)O)cc3)NC(=O)Cc3ccc(NCC(C)(C)C)cc3)c2=O)cc1` [Compound 48], binding under setting [1] was characterised by a dissociation constant (Kd) of 0.5 µM.
Same read-out and setting: in the case of `Cc1ccn(Cc2ccc(C(C)C)cc2)c(=O)c1NC(=O)[C@H](Cc1ccc(C(C)(C)C(=O)O)cc1)NC(=O)Cc1cccc2ccccc12` [Compound 101] it was 4.3 µM; in that of `Cc1ccn(Cc2ccccc2)c(=O)c1NC(=O)C(Cc1ccc(C(C)(C)C(=O)O)cc1)NC(=O)Cc1ccc2ccccc2c1` (centres unmarked) [Compound 198], 2.5 µM; in that of `COc1ccc(Cn2ccc(C)c(NC(=O)C(Cc3ccc(C(C)(C)C(=O)O)cc3)NC(=O)C(C)C)c2=O)cc1` (centres unmarked) [Compound 170], 3.9 µM.
Consider `COc1ccc(Cn2ccc(C)c(NC(=O)[C@H](Cc3ccc(NC(=O)C(=O)O)cc3)NC(=O)Nc3cccc4ccccc34)c2=O)cc1` [Compound 9], for which the Kd under setting [1] amounted to 64.5 µM.
Same read-out and setting: the value for `COc1ccc(Cn2ccc(C)c(NC(=O)[C@H](Cc3ccc(NC(=O)C(=O)O)cc3)NC(=O)Cc3c[nH]c4ccc(O)cc34)c2=O)cc1` [Compound 27] was 2.5 µM.
In turn, `COc1ccc(Cn2ccc(C)c(NC(=O)[C@H](Cc3ccc(NC(=O)C(=O)O)cc3)NC(=O)Cc3ccc(NC(=O)C(C)(C)C)cc3)c2=O)cc1` [Compound 104] returned a Kd under setting [1] of 0.65 µM.
`COc1ccc(Cn2ccc(C)c(NC(=O)[C@H](Cc3ccc(N(O)C(=O)C(=O)O)cc3)NC(=O)Cc3c[nH]c4ccccc34)c2=O)cc1` [Compound 24]: the affinity under setting [1], expressed as Kd, was 2.9 µM.
`COc1ccc(Cn2ccc(C)c(NC(=O)[C@H](Cc3ccc(CC(=O)O)cc3)NC(=O)Cc3ccc(Oc4ccccc4)cc3)c2=O)cc1` [Compound 71]: the Kd under setting [1] turned out to be 14 µM.
`COc1ccc(Cn2ncc(C)c(NC(=O)C(Cc3ccc(C(C)(C)C(=O)O)cc3)NC(=O)Cc3ccccc3N)c2=O)cc1` (centres unmarked) [Compound 246] yielded a Kd under setting [2] of 30 µM.
As to `COc1ccc(Cn2ccc(C)c(NC(=O)[C@H](Cc3ccc(CS(=O)(=O)O)cc3)NC(=O)Cc3cccc4ccccc34)c2=O)cc1` [Compound 42, 3-[2'-(S)-(1'"-Naphthylacetyl)amino-3'-(4"-sulfonylmethyl)benzene]propanoylamino-1-(4-methoxybenzyl)-4-methyl-2-pyridone], the Kd under setting [1] turned out to be 1.5 µM.

For the origin of these results see patent US6284768A, “Src family SH2 domain inhibitors” (Boehringer Ingelheim Pharmaceuticals, Inc., priority 1999, dated 2001).
